# Experimental data published in patent US20250281621A1, “GPC3 APTAMERS AND VARIANTS AND USE THEREOF” (Guardian Therapeutics, LLC, priority 2020, published 2025).
# Where a name gives a salt, the structure may show the parent alone. Read-outs that look alike come from different tables or passages of the source.
# B1: GGGAGACAAGAATAAAGCGAGTTTGAAGCCATTACCGGGTTGCTACCCAAGGACAAGAGTCGATGATGCTTAGCTAG (nucleic acid)
# chain: GGGAGACAAGAATAAAGCGAGTTTGAAGCCATTACCGGGTTGCTACCCAAGGACAAGAGTCGATGATGCTTAGCTAG
# modifications: listed as DNA, chemistry not fully specified
# notes: 12
# B2: GRX1187 (ssRNA)
# RNA: CGUCAUCGGGUUGCUACCCAAGGCCCAGGAGGGCGAUGACG
# modifications: fully 2'-OMe
# B3: GRX958 (ssRNA)
# RNA: GACUAGAUCGGGUUGCUACCCAAGCUCCGGUUCAGAUCGAUGGAGGAUCUAGUC
# modifications: fully 2'-OMe
# B4: GRX2102 (ssRNA)
# RNA: CGGGAGUCCUAGGAAGGACGGGUUGCUACCCAAGUCCCG
# modifications: fully 2'-OMe
# B5: GRX51 (CpG7909-GRX49 fusion) (mixed)
# mixed: TCGTCGTTTTGTCGTTTTGTCGTTCGUCAUCGGGUUGCUACCCAAGGCCAGGAGGCGAUGACG
# modifications: PS DNA CpG7909 portion, 2'-OMe aptamer portion
# B6: GRX2101 (ssRNA)
# RNA: CGUCAUCGGGUUGCUACCCAAGGCACCAGGAGGUGCGAUGACG
# modifications: fully 2'-OMe
# Assays:
# Hep3B xenograft [1] = settings: 30 mg/kg, oral, QD 28 days
# GPC3 [2] = molecular target: T1, GPC3 (Homo sapiens, UniProt P51654); experiment: GPC3 binding via flow cytometry using GPC3+ HEK293 cells; set-up: expressed in transfected cells; host or cells: engineered HEK293 cells overexpressing GPC3; settings: for GPC3 binding activity (MFI): GPC3^+ HEK293 cells; for Kd: flow cytometry using GPC3+ HEK293 cells
# Method: (§1) Two independent SELEX selections were carried to select clones that specifically bind to GPC3. Seven to nine rounds of nitrocellullose filter SELEX (Jhaveri et al., In vitro selection of RNA aptamers to a protein target by filter immobilization. Curr Protoc Nucleic Acid Chem. 2001, Chapter 9: Unit 9.3. doi: 10.1002/0471142700.nc0903s00. PMID: 18428881) were preformed using recombinant GPC3 protein. DNA clones from the final rounds of SELEX were sent for next generation sequencing and the data were analyzed for abundance. The highest abundant sequences (clones) were made via chemical synthesis and used in screening. The clones were screened for GPC3 binding via flow cytometry using engineered HEK293 cells overexpressing GPC3 (GPC3+ HEK293).
# Additional variants surrounding the core motif were made in which stem 2 (as depicted in FIG. 1) is extended by 1 or 2 additional base pairs (GRX1187 and GRX2101 respectively) or replaced with an alternative stem and loop sequence (GRX958). Additionally, a construct was designed in which stem 2 is closed with a 4 base loop and stem 1 is open creating a new 5′ and 3′ end, GRX2102. […] (Table 7)
# GPC3^− HEK293 cells = experiment: Flow cytometry binding control with GPC3− HEK293 cells
# Method: as §1
# (§2) Binding of aptamer variants to GPC3 was tested with melting curve analysis (thermofluorimetric analysis). The control of experiment was carried out similarly with GPC3^− HEK293 cells.
# [3] = Melting curve analysis (thermofluorimetric analysis); assay type: physicochemical; settings: compared to original clone F14, #Min4 and #Min5
# Method: as §2
# GPC3 [4] = molecular target: T1, GPC3; experiment: Binding activity of minimers incl. refolding and freeze/thaw tests
# Description: When the lineal GRX8 sequence is refolded, the binding activity of GRX8 improves.
# (§3) The best minimer, GRX46, as well as combinations of variants with top activities were selected for further evaluation (Table 6).
# GPC3 [5] = molecular target: T1, GPC3; experiment: Binding kinetics of top minimers (Ka, Kd, KD)
# Description: as §3
# [6] = molecular target: T2, endogenously expressed GPC3 (Homo sapiens, UniProt P51654); experiment: Binding to cancer cells endogenously expressing GPC3 (Hep3B, HepG2, NCI-H446, Huh7); settings: data not shown; for need of refolding for maximal activity: binding to Hep3B cells
# T2 construct: endogenously expressed GPC3 on different cancer cells; endogenous in cells; host or cells: Hep3B, HepG2, NCI-H446, Huh7
# Description: Human hepatocellular Carcinoma cells HepG2 and Hep 3B overexpressing GPC3 were used to test the affinity of the selected positive clones. The binding studies indicate that several selected aptamer candidates (Table 3) from both libraries can bind human hepatocellular Carcinoma cells with high affinity.
# A pool of partial randomization sequences from GRX8 was created and selected by cell-SELEX using GPC3^+ HEK293 cells. Those variants comprise various changes to the structural elements of GRX8, including changes to the external loop, stack, helix, hairpin loop and stem, etc. The clones were further screened with Hep3B cells and minimized based on original structure. The minimer #Min9 was further randomly mutagenized for sequence changes that can improve the binding affinity to GPC3. Another minimer variant (ID No.: GRX46)
# with increased activity was further tested.
# Hep3B xenograft [7] = experiment: GRX26 in Hep3B xenograft mouse model; settings: 28 Days; for Relative tumor volume growth (Day 28): vehicle = 1.00
# Method: (SEQ ID NO.: 32) (ID NO. #GRX26). GRX26 was tested in Hep3B xenograft mouse model for its activity in vivo (Table 8).
# Hep3B xenograft [8] = system: Hep3B xenograft
# Hep3B xenograft [9] = system: Hep3B xenograft; remark: listed apart in the source
# Glypican-3 (GPC3) [10] = molecular target: T3, Glypican-3 (GPC3) (UniProt P51654;P51654 P51654:25-358,P51654:359-554); experiment: flow; GPC3+ HEK293 cells; settings: tags: overexpressed in engineered HEK293 cells (GPC3+ HEK293)
# Glypican-3 (GPC3) [11] = molecular target: T3, Glypican-3 (GPC3); experiment: assay and GPC3 source not stated; fusion does not affect GPC3 binding; settings: tags: recombinant GPC3 used for SELEX; source inferred for kinetic assay
# [12] = 5 mg/kg, IP, QD/7Days, vehicle = 1.00
molecule,measurement,setting,value
CNC(=O)c1cc(Oc2ccc(NC(=O)Nc3ccc(Cl)c(C(F)(F)F)c3)cc2)ccn1 [Sorafenib Tosylate],% of body weight loss (Day 28),Hep3B xenograft [1],9.33%
"AAGCATTACCGGGTTGCTACCCAAGGACAAGAGTCGATGATGCTT (listed as DNA, chemistry not fully specified) [Min2, 27]",binding activity to GPC3^+ HEK293 cells compared to full sequence of clone F14,GPC3 [2],significantly increased
same,GPC3 binding activity (MFI),GPC3 [2],16652
same,GPC3 binding activity (MFI),GPC3^− HEK293 cells,720
"AAGCCATTACCGGGTTGCTACCCAAGGACAAGAGTCGATGATGCTT (listed as DNA, chemistry not fully specified) [Min1, 26]",binding activity to GPC3^+ HEK293 cells compared to full sequence of clone F14,GPC3 [2],significantly increased
same,GPC3 binding activity (MFI),GPC3 [2],11403
same,GPC3 binding activity (MFI),GPC3^− HEK293 cells,579
"AAGCCATTACCGGGTTGCTACCCGAGGACAAGAGTCGATGATGCTT (listed as DNA, chemistry not fully specified) [Min3, 28]",GPC3 binding activity (MFI),GPC3 [2],377
same,GPC3 binding activity (MFI),GPC3^− HEK293 cells,444
"AAGCCATTATCGGGTTGCTACCCAAGGACAAGAGTCGATGATGCTT (listed as DNA, chemistry not fully specified) [Min4, 29]",binding activity to GPC3^+ HEK293 cells compared to full sequence of clone F14,GPC3 [2],significantly increased
same,GPC3 binding activity (MFI),GPC3 [2],23261
same,GPC3 binding activity (MFI),GPC3^− HEK293 cells,1072
"CATTATCGGGTTGCTACCCAAGGACAAGAGTCGATGATG (listed as DNA, chemistry not fully specified) [Min5, 30]",binding activity to GPC3^+ HEK293 cells compared to full sequence of clone F14,GPC3 [2],significantly increased
same,GPC3 binding activity (MFI),GPC3 [2],19484
same,GPC3 binding activity (MFI),GPC3^− HEK293 cells,946
"CATTATCGGGTTGCTACCCGAGGACAAGAGTCGATGATG (listed as DNA, chemistry not fully specified) [Min6, 31]",GPC3 binding activity (MFI),GPC3 [2],3619
same,GPC3 binding activity (MFI),GPC3^− HEK293 cells,507
"CGGGAGUCCUAGGAAGGACGGGUUGCUACCCAAGUCCCG (listed as RNA, chemistry not fully specified) [GRX2102, 79]",Kd,GPC3 [2],0.0269 µM
"CGTCATCGGGTTGCTACCCAAGGACAAGAGTCGATGACG (listed as DNA, chemistry not fully specified) [Min9, 32]",thermal stability,[3],thermally more stable
"CGTCGTCGGGTTGCTACCCAAGGACAAGAGTCGACGACG (listed as DNA, chemistry not fully specified) [Min9.2, 33]",thermal stability,[3],thermally more stable
"CGUCAUCGGGUUGCUACCCAAGGACAAGAGUCGAUGACG (RNA aptamer, any chemical modification not given here, further chemistry not given here) [GRX8]",binding activity when the lineal sequence is refolded,GPC3 [4],improves
same,binding affinity to exogenously expressed GPC3,GPC3 [4]; FIG. 2,high binding affinity
same,stability of activity in freeze/thaw tests,GPC3 [4]; frequent freeze/thaw,stable and not affected by the frequent freeze/thaw tests
same,Ka,GPC3 [5],61900 M⁻¹ s⁻¹
"CGUCAUCGGGUUGCUACCCAAGGCACCAGGAGGUGCGAUGACG (listed as RNA, chemistry not given here) [GRX2101, 78]",Kd,GPC3 [2],0.0293 µM
"CGUCAUCGGGUUGCUACCCAAGGCCAGGAGGCGAUGACG (listed as RNA, chemistry not fully specified) [GRX49, 25]",binding to endogenously expressed GPC3 on cancer cells,"[6]; Hep3B, HepG2, NCI-H446, Huh7",selectively bind
same,need of refolding for maximal activity,[6],do not require refolding for maximal activity
same,Ka,GPC3 [5],199000 M⁻¹ s⁻¹
same,Kd,GPC3 [2],0.009 µM
"CGUCAUCGGGUUGCUACCCAAGGCCCAGGAGGGCGAUGACG (listed as RNA, chemistry not given here) [GRX1187, 77]",Kd,GPC3 [2],0.0642 µM
"CGUCAUCGGGUUGCUACCCAAGGUCAAGAGACGAUGACG (listed as RNA, chemistry not fully specified) [GRX46]",binding activity and refolding behavior relative to GRX8,GPC3 [4]; data not shown,"similar, enhanced binding activity"
same,Ka,GPC3 [5],55400 M⁻¹ s⁻¹
"CGUCAUCGGGUUGCUACCCAAGGUCAGGAGACGAUGACG (listed as RNA, chemistry not given here) [GRX8 with triple]",need of refolding for maximal activity,[6],do not require refolding for maximal activity
same,Ka,GPC3 [5],112000 M⁻¹ s⁻¹
"CGUCAUCGGGUUGCUACCCAAGGUCAGGUGACGAUGACG (listed as RNA, chemistry not given here) [GRX8 with QUAD6]",need of refolding for maximal activity,[6],do not require refolding for maximal activity
same,Ka,GPC3 [5],201000 M⁻¹ s⁻¹
DM1-CGTCATCGGGTTGCTACCCAAGGACAAGAGTCGATGACG [GRX26],% of body weight loss,Hep3B xenograft [7]; 2.5 mg/kg,10.67%
same,Relative tumor volume growth (Day 28),Hep3B xenograft [7]; 2.5 mg/kg,0.69
same,% of body weight loss,"Hep3B xenograft [7]; 10 mg/kg, IP/QD",14.86%
same,Relative tumor volume growth (Day 28),"Hep3B xenograft [7]; 10 mg/kg, IP/QD",0.46
"GACUAGAUCGGGUUGCUACCCAAGCUCCGGUUCAGAUCGAUGGAGGAUCUAGUC (listed as RNA, chemistry not fully specified) [GRX958, 76]",Kd,GPC3 [2],0.0331 µM
"GGCATCGGGTTGCTACCCAAGGACAAGAGTCGATGCC (listed as DNA, chemistry not fully specified) [Min11, 34]",thermal stability,[3],thermally more stable
Keytruda: the PD-1R inhibitor Keytruda,% of body weight loss,Hep3B xenograft [8]; 10 mg/kg,3.66%
same,reduction of tumor size,"Hep3B xenograft [8]; 10 mg/kg once every 3 days i.p., 11 days",18%
same,Relative tumor volume growth (Day 11),"Hep3B xenograft [8]; 10 mg/kg, vehicle = 1.00",0.82
TCGTCGTTTTGTCGTTTTGTCGTT [CpG],Relative tumor volume growth (Day 7),Hep3B xenograft [9]; [12],0.57
same,Relative tumor volume growth (Day 18),Hep3B xenograft [9]; [12],0.47
same,final immune: tumor cell ratio relative to the vehicle control,Hep3B xenograft [9]; 7-day on/7-day off daily dosing schedule,1.51±0.95
B1,GPC3 binding activity (MFI),GPC3 [2],5050
same,GPC3 binding activity (MFI),GPC3^− HEK293 cells,1040
B2,Kd,Glypican-3 (GPC3) [10]; stem 2 extended by 1 bp,0.0642 µM
B3,Kd,Glypican-3 (GPC3) [10]; stem 2 replaced with alternative stem and loop,0.0331 µM
B4,Kd,"Glypican-3 (GPC3) [10]; stem 2 closed with 4-base loop, stem 1 open (new 5' and 3' ends)",0.0269 µM
B5,IC50,Glypican-3 (GPC3) [11],0.0327 µM
B6,Kd,Glypican-3 (GPC3) [10]; stem 2 extended by 2 bp,0.0293 µM
